Assay results as given in US10874669B2 (WAYNE STATE UNIVERSITY, priority 2018, dated 2020).
“Also recorded” adds a separate entry of the source. One block for each compound: values may come before it.

Experiments:
cloned D3 receptors = cloned D3 receptors (Rattus norvegicus (Rat), UniProt P19020); test: [3H]spiperone displacement, cloned D3 receptors in HEK cells; assay type: binding; details: means±SEM for 3 experiments
Source text: The following table provides inhibition constants for displacing [3H]spiperone binding to the cloned D2L and D3 receptors expressed in HEK cells. Results are means±SEM for 3 experiments each performed in triplicate. NR=Not repeated.

cloned D2L receptors = cloned D2L receptors (Rattus norvegicus (Rat), UniProt P61169); test: [3H]spiperone displacement, cloned D2L receptors in HEK cells; assay type: binding; details: means±SEM for 3 experiments
Source text: The following table provides inhibition constants for displacing [3H]spiperone binding to the cloned D2L and D3 receptors expressed in HEK cells. […] NR=Not repeated.

human DA D3 receptors = human DA D3 receptors (Homo sapiens (Human), UniProt P35462); test: [35S]GTPγS binding stimulation, human D3 receptors in CHO cells; assay type: biochemical; details: for EC50: CHO cells, read-out: EC50 (GTPγS), D3; for Emax: compared with maximum stimulation by full agonist DA
human DA D2 receptors = human DA D2 receptors (Homo sapiens (Human), UniProt P14416); test: [35S]GTPγS binding stimulation, human D2 receptors in CHO cells; assay type: biochemical; details: for EC50: CHO cells, read-out: EC50 (GTPγS), D2; for Emax: compared with maximum stimulation by full agonist DA
α-syn = α-syn (Homo sapiens (Human), UniProt P37840); details: previously shown; cited from earlier work
PC12 cells [1] = details: previously shown; cited from earlier work
cloned rat D3 receptors = cloned rat D3 receptors (Rattus norvegicus (Rat), UniProt P19020); test: [3H]spiroperidol competition binding, rat D3 receptors in HEK-293 cells; details: rat D3 in HEK-293 cells; values of Table 3
Experimental: A well established radioligand competition assay was carried out to evaluate binding affinity of the test compounds and were compared with that of the reference agent (S)-5-OH-DPAT (Table 3). Binding affinity to rat DA D2 and D3 receptors expressed in HEK-293 cells was determined as described by us previously. […] This indicated highest tolerance of the 4-substituted carbazole derivative for interaction with the D2 and D3 receptors.
(§1) All these procedures were described by us previously.

[2] = test system: reserpine-induced hypolocomotion in rats; test: Reversal of reserpine-induced hypolocomotion in rats; details: 10 μMol/kg, ip; for duration of locomotor activation: locomotion monitored for 6 h; for reversal of reserpine-induced akinesia / hypolocomotion (horizontal activity): reserpine 5 mg/kg sc, 18 h pretreatment, rats
Experimental: In this model depletion of catecholamines by reserpine results in catalepsy in rats.
The following commercially available drug was used in the experiment: reserpine hydrochloride (Alfa Aesar). […] The compounds for this study were administered in a volume of 0.1-0.2 mL for subcutaneous administration and 0.5-0.7 ml for interaperitoneal administration into each rat.
In rodent studies, animals were male and female Sprague-Dawley rats from Harlan (Indianapolis, Ind.) weighing 220-225 g unless otherwise specified. Animals were maintained in sawdust-lined cages in a temperature and humidity controlled environment at 22±1° C. and 60±5% humidity, respectively. A 12 h light/dark cycle was maintained, with lights on from 6:00 a.m. to 6:00 p.m. They were group-housed with unrestricted access to food and water. All experiments were performed during the light component.
Reserpine (5.0 mg/kg, sc) was administered 18 h before the injection of drug or vehicle. The rats were placed individually in the chambers for 1 h for acclimatization before administration of the test drugs or vehicle. Immediately after administration of drug or vehicle, animals were individually placed in Opto-Varimex 4 animal activity monitor chamber (Columbus Instruments, Ohio, USA) to start measuring locomotor activity. Locomotion was monitored for 6 h. […] The data were presented as horizontal activity (HACTV). […] The data were analyzed by one-way analysis of variance (ANOVA) followed by Dunnett's post hoc test.

PC12 cells [3] = test: MTT neuroprotection against 6-OHDA-induced toxicity; assay type: cell-based, rat
Experimental: (§2) To investigate the neuroprotection property of the selected target molecules (−)-91b, (−)-95a and (−)-95c against 6-OHDA-induced cytotoxicity, we used dopaminergic rat adrenal Pheochromocytoma PC12 cells. As reported above, treatment of PC12 cells with 6-OHDA at 75 μM for 24 h produced ˜50% loss in cells viability and this concentration was used in subsequent experiments. […] However, (−)-95a produced some incremental toxicity starting at 20 μM dose (FIG. 4B). The potential neuroprotective effects of (−)-91b, (−)-95a and (−)-95c against 6-OHDA-induced toxicity were evaluated next. […] At those concentration both drugs increased cell survival by ˜20% compared to 6-OHDA (75 μM) treated alone (FIGS. 4D and 4F), indicating neuroprotective effect of these drugs. […] This could be due to the fact that the compound by itself produced toxicity to the cells at doses ≥20 μM and the presence of 6-OHDA enhanced the toxicity (FIG. 4B).
PC12 cells (ATCC CRL1721.1, Manassas, Va., USA), a rat adrenal pheochromocytoma cell line, were cultured in T-75 flasks (Greiner Bio One, Frickenhausen, Germany) and maintained in RPMI 1640 medium supplemented with 10% heat inactivated horse serum, 5% fetal bovine serum, 100 U/ml penicillin, and 100 μg/mL streptomycin at 37° C. in 95% air/5% CO2. Stock solutions of (−)-91b, (−)-95a, (−)-95c, and 6-hydroxydopamine (6-OHDA) were prepared in dimethylsulfoxide (DMSO) and aliquots were stored at −20° C. and −80° C., respectively. For all experiments assessing neuroprotective effects of the test compounds, PC12 cells were pretreated with indicated concentrations of (−)-91b, (−)-95a and (−)-95c for 24 h and then treated with 75 μM 6-OHDA for another 24 h. The control cells were treated with above media containing 0.01% DMSO only.
PC12 cells were plated at 17000 cells/well density in 100 μL of media in 96-well plates and incubated at 37° C. under 5% CO2 atmosphere for 24 h. Cells were treated with varying concentrations of the test compounds to determine their direct effect on cell viability. Neuroprotection experiments were conducted by treating cells for 24 h with varying concentrations of (−)-91b, (−)-95a and (−)-95c. Then the drug containing media was replaced with fresh culture media followed by treatment with 75 μM of 6-OHDA alone for an additional 24 h under the same condition. After incubation for 24 h, 5 mg/mL MTT solution (prepared in Dulbecco's phosphate-buffered saline) was added to the cells (to a final concentration of 0.5 mg/mL) and the plates were further incubated at 37° C. in 95% air/5% CO2 atmosphere for 3-4 h to produce dark-blue formazan crystals. Afterward, the plates were centrifuged at 450 g for 10 min and the supernatants were carefully removed. Formazan crystals were dissolved by adding 100 μL of methanol:DMSO (1:1) mixture to each well and shaking gently at 400 rpm for 30 min at room temperature on a Thermomix R shaker (Eppendorf, Hamburg, Germany). The absorbance was measured on a microplate reader (Biotek Epoch, Winooski, Vt., USA) at 570 nm with background correction performed at 690 nm. Data from at least three experiments were analyzed using GraphPad software (version 6, San Diego, Calif., USA). Cell viability was defined as […] compared to untreated controls.

PC12 cells [4] = test: MTT cell viability, compounds alone; assay type: cell-based, rat; details: 0.01-30 μM, compared to untreated controls
Experimental: as §2
PC12 cells (ATCC CRL1721.1, Manassas, Va., USA), a rat adrenal pheochromocytoma cell line, were cultured in T-75 flasks (Greiner Bio One, Frickenhausen, Germany) and maintained in RPMI 1640 medium supplemented with 10% heat inactivated horse serum, 5% fetal bovine serum, 100 U/ml penicillin, and 100 μg/mL streptomycin at 37° C. in 95% air/5% CO2. Stock solutions of (−)-91b, (−)-95a, (−)-95c, and 6-hydroxydopamine (6-OHDA) were prepared in dimethylsulfoxide (DMSO) and aliquots were stored at −20° C. and −80° C., respectively. […]
PC12 cells were plated at 17000 cells/well density in 100 μL of media in 96-well plates and incubated at 37° C. under 5% CO2 atmosphere for 24 h. […] The absorbance was measured on a microplate reader (Biotek Epoch, Winooski, Vt., USA) at 570 nm with background correction performed at 690 nm. Data from at least three experiments were analyzed using GraphPad software (version 6, San Diego, Calif., USA). Cell viability was defined as […] compared to untreated controls.

cloned rat D2L receptors = cloned rat D2L receptors (Rattus norvegicus (Rat), UniProt P61169); test: [3H]spiroperidol competition binding, rat D2L receptors in HEK-293 cells; details: rat D2 in HEK-293 cells; values of Table 3
Source text: as §1

PC12 cells [5] = test: DCFDA fluorescence assay of intracellular ROS induced by 6-OHDA; assay type: cell-based, rat; details: 20 μM, 24 h pretreatment, then 75 μM 6-OHDA 1 h
Experimental: Experimental detection of reactive oxygen species (ROS) produced by 6-OHDA was carried out by DCFDA assay. 6-OHDA, a well known neurotoxin, produces oxidative stress similar to what is observed in PD and the mechanism of neurotoxicity of 6-OHDA takes place via its auto-oxidation and subsequent generation of hydrogen peroxide. DCFDA is a non-fluorogenic dye but in the presence of ROS, it is oxidized to produce DCF which produces florescence. We have previously shown that 6-OHDA causes cell death in a dose-dependent manner. We chose 75 μM 6-OHDA as we have shown that this dose induces 40-50% cell death. […] However, the test compounds could dose dependently decrease the production of ROS induced by 6-OHDA (75 μM) in PC12 cells. In this regard, highest dose of all the three compounds was the most efficacious in producing significant antioxidant effect.
PC12 cells (ATCC CRL1721.1, Manassas, Va., USA), a rat adrenal pheochromocytoma cell line, were cultured in T-75 flasks (Greiner Bio One, Frickenhausen, Germany) and maintained in RPMI 1640 medium supplemented with 10% heat inactivated horse serum, 5% fetal bovine sérum, 100 U/ml penicillin, and 100 μg/mL streptomycin at 37° C. in 95% air/5% CO2. […]
PC12 cells were plated at 30,000 cells/well density in 100 μL media in 96-well black plates and incubated at 37° C. under 5% CO2 atmosphere for 24 h. […] After incubation for 1 h, the fluorescence was measured using spectrophotometer fluorescence generated microplate reader (Biotek Epoch, Winooski, Vt., USA) at excitation 497 nm and emission at 527 nm. […] The specific fluorescence emission was calculated after subtraction of the DCFDA untreated control cells from the DCFDA treated cells for both the background and 1 h treatment conditions. This was followed by the division of the 1 h treatment data by the background activity which was determined from vials before treatment with 6-OHDA, to derive the final data point.

cloned D3 receptors, sequence (P19020 whole entry): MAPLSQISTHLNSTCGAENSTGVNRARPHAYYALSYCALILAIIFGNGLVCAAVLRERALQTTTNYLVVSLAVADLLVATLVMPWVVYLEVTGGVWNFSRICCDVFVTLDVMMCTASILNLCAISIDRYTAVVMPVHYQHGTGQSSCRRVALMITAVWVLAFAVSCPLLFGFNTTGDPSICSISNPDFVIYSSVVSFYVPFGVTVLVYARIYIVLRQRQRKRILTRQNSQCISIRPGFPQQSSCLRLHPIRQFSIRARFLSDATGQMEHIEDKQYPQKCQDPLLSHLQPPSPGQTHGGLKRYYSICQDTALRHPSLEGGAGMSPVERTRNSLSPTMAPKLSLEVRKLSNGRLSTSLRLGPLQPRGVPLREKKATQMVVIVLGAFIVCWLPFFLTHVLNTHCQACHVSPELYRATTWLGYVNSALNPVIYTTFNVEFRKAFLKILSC
cloned D2L receptors, sequence (P61169 whole entry): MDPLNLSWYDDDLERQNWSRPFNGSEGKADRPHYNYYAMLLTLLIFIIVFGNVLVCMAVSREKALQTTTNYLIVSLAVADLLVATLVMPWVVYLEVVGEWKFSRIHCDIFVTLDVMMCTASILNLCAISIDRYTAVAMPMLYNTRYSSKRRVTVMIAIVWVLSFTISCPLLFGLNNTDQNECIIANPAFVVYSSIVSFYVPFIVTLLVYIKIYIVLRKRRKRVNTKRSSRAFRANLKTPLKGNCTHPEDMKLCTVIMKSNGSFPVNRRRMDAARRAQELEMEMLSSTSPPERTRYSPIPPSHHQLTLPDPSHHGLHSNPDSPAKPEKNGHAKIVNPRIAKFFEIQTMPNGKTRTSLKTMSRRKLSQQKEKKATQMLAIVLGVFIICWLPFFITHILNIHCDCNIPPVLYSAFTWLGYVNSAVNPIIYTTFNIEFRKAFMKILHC
human DA D2 receptors, sequence (P14416 whole entry): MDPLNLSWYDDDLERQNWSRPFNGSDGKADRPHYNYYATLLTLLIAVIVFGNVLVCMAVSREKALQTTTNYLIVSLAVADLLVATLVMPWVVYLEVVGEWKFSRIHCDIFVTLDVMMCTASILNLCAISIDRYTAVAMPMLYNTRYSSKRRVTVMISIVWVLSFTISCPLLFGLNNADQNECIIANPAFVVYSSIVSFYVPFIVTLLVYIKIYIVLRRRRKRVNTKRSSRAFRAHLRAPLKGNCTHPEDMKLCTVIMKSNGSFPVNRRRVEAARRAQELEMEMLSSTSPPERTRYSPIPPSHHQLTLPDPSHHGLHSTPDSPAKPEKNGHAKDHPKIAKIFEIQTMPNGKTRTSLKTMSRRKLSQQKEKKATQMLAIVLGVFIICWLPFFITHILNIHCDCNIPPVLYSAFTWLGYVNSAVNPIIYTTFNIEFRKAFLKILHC
human DA D3 receptors, sequence (P35462 whole entry): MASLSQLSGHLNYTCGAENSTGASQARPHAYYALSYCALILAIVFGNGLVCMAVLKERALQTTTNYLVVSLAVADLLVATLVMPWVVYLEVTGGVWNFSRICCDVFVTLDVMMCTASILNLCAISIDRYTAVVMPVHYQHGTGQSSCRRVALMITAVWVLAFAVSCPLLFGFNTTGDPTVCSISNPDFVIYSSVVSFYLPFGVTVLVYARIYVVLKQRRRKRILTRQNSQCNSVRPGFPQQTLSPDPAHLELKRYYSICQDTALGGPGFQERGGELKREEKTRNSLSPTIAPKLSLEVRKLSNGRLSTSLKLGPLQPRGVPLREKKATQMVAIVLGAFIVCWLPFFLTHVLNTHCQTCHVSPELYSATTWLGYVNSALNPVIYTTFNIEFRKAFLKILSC
cloned rat D3 receptors, sequence (P19020 whole entry): as the sequence (P19020 whole entry) above
cloned rat D2L receptors, sequence (P61169 whole entry): as the sequence (P61169 whole entry) above

SMILES: CCCN(CCCCCc1ccc(O)c(OC)c1)[C@@H]1CCc2nc(N)sc2C1 [(−)-23, (R)-4-(5-((2-Amino-4,5,6,7-tetrahydrobenzo[d]thiazol-6-yl)(propyl)amino)pentyl)-2-methoxyphenol]
Ki (cloned D3 receptors): 1.57 ± 0.41 nM
Ki (cloned D2L receptors): 68.3 ± 12 nM

SMILES: CCCN(CCCCCc1ccc(O)c(O)c1)[C@@H]1CCc2nc(N)sc2C1 [(−)-34, (R)-4-(5-((2-Amino-4,5,6,7-tetrahydrobenzo[d]thiazol-6-yl)(propyl)amino)pentyl)benzene-1,2-diol]
Ki (cloned D3 receptors): 1.42 ± 0.14 nM
Ki (cloned D2L receptors): 65.7 ± 11.7 nM

SMILES: CCCN(CCN1CCN(c2cccc3[nH]c4ccccc4c23)CC1)[C@H]1CCc2nc(N)sc2C1 [(−)-91c, (S)—N^6-(2-(4-(9H-carbazol-4-yl)piperazin-1-yl)ethyl)-N^6-propyl-4,5,6,7-tetrahydrobenzo[d]thiazole-2,6-diamine]
EC50 (human DA D3 receptors): 1.67 nM
Emax (human DA D3 receptors): 82%
EC50 (human DA D2 receptors): 22.2 nM
Emax (human DA D2 receptors): 57%

SMILES: CCCN(CCC)C1CCc2c(O)cccc2C1 (centres unmarked) [Compound 5-OHDPAT, 5-hydroxy-2-(dipropylamino)tetralin]
decreasing ThT fluorescence, compared to hybrid agonist (α-syn): far less effective
reducing toxicities of α-syn aggregates, compared to hybrid agonist (PC12 cells [1]): far less effective

SMILES: CCCN(CCCc1ccc(O)c(OC)c1)C1CCc2nc(N)sc2C1 (centres unmarked) [Compound 22, 4-(3-((2-Amino-4,5,6,7-tetrahydrobenzo[d]thiazol-6-yl)(propyl)amino)propyl)-2-methoxyphenol]
Ki (cloned D3 receptors): 15.8 ± 2 nM
Ki (cloned D2L receptors): 2400 nM

SMILES: CCCN(CCCCCc1ccc(O)c(OC)c1)C1CCc2nc(N)sc2C1 (centres unmarked) [Compound 23, 4-(5-((2-Amino-4,5,6,7-tetrahydrobenzo[d]thiazol-6-yl)(propyl)amino)pentyl)-2-methoxyphenol]
Ki (cloned D2L receptors): 175 ± 8 nM

SMILES: CCCN(CCC)CCc1cccc2c1CC(=O)N2 [ropinirole, reference compound]
duration of locomotor activation [2]: shorter duration of action
reversal of reserpine-induced akinesia / hypolocomotion (horizontal activity) [2]: fast onset of activation of locomotion

Continued, in another order:

Ki (cloned D3 receptors): 2.59 ± 0.31 nM
Ki (cloned D2L receptors): 116 ± 8 nM
SMILES: CCCN(CCCCCc1ccc(O)c(O)c1)C1CCc2nc(N)sc2C1 (centres unmarked) [Compound 34, 4-(5-((2-Amino-4,5,6,7-tetrahydrobenzo[d]thiazol-6-yl)(propyl)amino)pentyl)benzene-1,2-diol]

Ki (cloned D3 receptors): 23.3 ± 4 nM
Ki (cloned D2L receptors): 233 ± 8 nM
SMILES: CCCN(CCC/C=C\c1ccc(O)c(OC)c1)C1CCc2nc(N)sc2C1 (centres unmarked) [Compound 39, (Z)-4-(5-((2-amino-4,5,6,7-tetrahydrobenzo[d]thiazol-6-yl)(propyl)amino)pent-1-en-1-yl)-2-methoxyphenol]

Ki (cloned D3 receptors): 39.1 ± 5.4 nM
Ki (cloned D2L receptors): 4630 nM
SMILES: CCCN(C/C=C/c1ccc(O)c(OC)c1)C1CCc2nc(N)sc2C1 (centres unmarked) [Compound 63, (E)-4-(3-((2-amino-4,5,6,7-tetrahydrobenzo[d]thiazol-6-yl)(propyl)amino)prop-1-en-1-yl)-2-methoxyphenol]

Ki (cloned D3 receptors): 14.2 ± 3.8 nM
Ki (cloned D2L receptors): 162 ± 7 nM
SMILES: CCCN(CCN1CCN(c2ccc3c(c2)C(=O)C(=O)N3)CC1)[C@H]1CCc2nc(N)sc2C1 [Compound 70]

Ki (cloned rat D3 receptors): 0.36 nM
Ki (cloned rat D2L receptors): 16.9 nM
EC50 (human DA D3 receptors): 0.22 nM
Emax (human DA D3 receptors): 74 to 88%
EC50 (human DA D2 receptors): 2.29 nM
Emax (human DA D2 receptors): 74 to 88%
SMILES: CCCN(CCN1CCN(c2cccc3[nH]c4ccccc4c23)CC1)[C@H]1CCc2c(O)cccc2C1 [Compound (−)-95c, (S)-6-((2-(4-(9H-carbazol-4-yl)piperazin-1-yl)ethyl)(propyl)amino)-5,6,7,8-tetra-hydronaphthalen-1-ol]
duration of locomotor activation [2]: significant enhancement of locomotion for the duration of the study of 6 h
reversal of reserpine-induced akinesia / hypolocomotion (horizontal activity) [2]: significantly reversed akinesia; also recorded: significantly different
concentration of greatest protective effect (PC12 cells [3]; 24 h pretreatment, then 75 μM 6-OHDA 24 h): 20 µM
increase in cell survival compared to 6-OHDA treated alone (PC12 cells [3]; at concentration of greatest protective effect, 75 μM 6-OHDA): ~20%
cell viability, compound alone (PC12 cells [4]): no cells loss
reduction in ROS (PC12 cells [5]): 36%
